Among the data in US6410528B1, “Morpholino ethers” (Glaxo Wellcome S.A., priority 1998, dated 2002) are MIC values, retold here.

In brackets after ≈: the same amount, converted by molar mass.

What all share (assay): in vitro antifungal screen, MIC by two-fold serial dilution
For one assay, the system named is C. glabrata 2375E. The assay is classed as cell-based, Candida glabrata. Here is the method: (§1) The antifungal activity of the compounds of formula (I) may be determined using conventional in vitro and in vivo screens. Thus, the in vitro evaluation of the anti-fungal activity of compounds of the invention was performed on liquid or solid medium by the anti-fungal two-fold serial dilution technique of determining the minimum inhibitory concentration (MIC) of anti-fungal agent that inhibited development of growth after 24 to 48 hours of incubation at 37° C. In practice, a series of agar plates or broth microdilution panels containing two-fold dilutions of anti-fungal agent tested were inoculated with a standard culture of a clinically relevant pathogen, for example, Candida albicans. The agar plates or broth microdulution panels were then examined for the presence or absence of growth of the fungus and the appropriate MIC values were noted.
(§2) Compounds of formula (I) have been tested for anti fungal activity in a standard in vitro screen and the minimum inhibiting concentration (MIC; μg/ml) determined for each compound against a variety of clinically relevant pathogens.

A further assay relates to C. glabrata 522. The class given is cell-based, Candida glabrata. As for the experimental part: as §1, §2
A further assay concerns C. tropicalis 2808E. The assay is classed as cell-based, Candida tropicalis. As for the experimental part: as §1, §2
The next assay has as its system C. albicans CL-236. The class given is cell-based, Candida albicans. As for the experimental part:
as §1, §2

In another assay the test system is C. albicans 4711E. The class given is cell-based, Candida albicans. Here is the method:
as §1, §2

In assay [1] the test system is C. pseudotropicalis 2371E. The assay is classed as cell-based, Candida pseudotropicalis. Here is the method: as §1, §2
In a further assay the test system is C. parapsilosis 2372E. The class given is cell-based, Candida parapsilosis. As for the experimental part:
as §1, §2

The MIC is the least concentration at which growth counts as inhibited. Lower therefore signals inhibition by little substance. Consider `CC1CN(C2CC2)CC(OCC23CC4C(C)CCC4C4(C=O)CC2C=C(C(C)C)C43C(=O)[O-])O1.[K+]` [Example 4, [1R-(1α,3aβ,4β,4aβ,7β,7aα,8aβ)]8a-[(2R,6R)-(4-cyclopropyl-6-methyl-morpholin-2-yl)-oxymethyl]-4-formyl-4,4a,5,6,7,7a,8,8a-octahydro-7-methyl-3-(1-methylethyl)-1,4-methano-s-indacene-3a(1H)-carboxylic acid, potassium salt], for which the MIC in the assay on C. glabrata 2375E was 4 µg/mL; with C. glabrata 522, 4 µg/mL; with C. tropicalis 2808E it was 0.06 µg/mL; against C. albicans CL-236, 0.015 µg/mL; against C. albicans 4711E, “≦0.001 μg/ml”; in assay [1] it was 0.004 µg/mL. In the assay on C. parapsilosis 2372E, this compound came in with an MIC greater than 125 µg/mL.

For `CON1CC(C)OC(OCC23CC4C(C)CCC4C4(C=O)CC2C=C(C(C)C)C43C(=O)O)C1` [Example 18, 1R-(1α,3aβ,4β,4aβ,7β,7aα,8aβ)]8a-[(2R,6R)-6-methyl-4-methoxy-morpholin-2-yl)-oxymethyl]-4-formyl-4,4a,5,6,7,7a,8,8a-octahydro-7-methyl-3-(1-methylethyl)-1,4-methano-s-indacene-3a(1H)-carboxylic acid], the MIC in the assay on C. glabrata 2375E was 8 µg/mL (≈ 17.3 µM); in the assay on C. glabrata 522, 8 µg/mL (≈ 17.3 µM); with C. tropicalis 2808E it was 1 µg/mL (≈ 2.17 µM); against C. albicans CL-236 it was 0.25 µg/mL (≈ 0.542 µM); against C. albicans 4711E it was 0.03 µg/mL (≈ 0.065 µM); against C. parapsilosis 2372E, greater than 125 µg/mL.

Regarding `C=C(Br)CN1CC(C)OC(OCC23CC4C(C)CCC4C4(C=O)CC2C=C(C(C)C)C43C(=O)O)C1` [Example 7, [1R-(1α,3aβ,4β,4aβ,7β,7aα,8aβ)]8a-[(2R,6R)-(4-(2-bromoallyl)-6-methyl-morpholin-2-yl)-oxymethyl]-4-formyl-4,4a,5,6,7,7a,8,8a-octahydro-7-methyl-3-(1-methylethyl)-1,4-methano-s-indacene-3a(1H)-carboxylic acid], the MIC against C. glabrata 2375E was 0.25 µg/mL (≈ 0.454 µM); in the assay with C. glabrata 522 it was 0.25 µg/mL (≈ 0.454 µM); in the assay on C. tropicalis 2808E, 0.008 µg/mL (≈ 0.0145 µM); against C. albicans CL-236, 0.008 µg/mL (≈ 0.0145 µM); against C. albicans 4711E it was “≦0.001 μg/ml”; in assay [1], “≦0.001 μg/ml”. Moreover, in the assay with C. parapsilosis 2372E, the MIC was 4 µg/mL (≈ 7.27 µM).

`C=C=CCN1CC(C)OC(OCC23CC4C(C)CCC4C4(C=O)CC2C=C(C(C)C)C43C(=O)O)C1` [Example 14, [1R-(1α,3aβ,4β,4aβ,7β,7aα,8aβ)]8a-[(2R,6R)-4-(2,3-butadienyl)-6-methyl-morpholin-2-yl)-oxymethyl]-4-formyl-4,4a,5,6,7,7a,8,8a-octahydro-7-methyl-3-(1-methylethyl)-1,4-methano-s-indacene-3a(1H)-carboxylic acid]: the MIC was 0.12 µg/mL (≈ 0.248 µM) in the assay with C. glabrata 2375E; 0.12 µg/mL (≈ 0.248 µM) with C. glabrata 522; 0.015 µg/mL (≈ 0.031 µM) against C. tropicalis 2808E; 0.004 µg/mL (≈ 0.00827 µM) against C. albicans CL-236; “≦0.001 μg/ml” with C. albicans 4711E; “≦0.001 μg/ml” in assay [1]. The MIC against C. parapsilosis 2372E was determined as 8 µg/mL (≈ 16.5 µM).

On to `C=CCN1C[C@H](OC[C@@]23C[C@@H]4[C@H](C)CC[C@H]4[C@@]4(C#N)C[C@@H]2C=C(C(C)C)[C@@]34C(=O)O)O[C@H](C)C1` [Example 25, [1R-(1α,3aβ,4β,4aβ,7β,7aα,8aβ)]8a-[(2R,6R)-(4-allyl-6-methyl-morpholin-2-yl)-oxymethyl]-4-cyano4,4a,5,6,7,7a,8,8a-octahydro-7-methyl-3-(1-methylethyl)-1,4-methano-s-indacene-3a(1H)-carboxylic acid], for which the MIC was found to be 0.5 µg/mL (≈ 1.07 µM) in the assay on C. glabrata 2375E; 0.5 µg/mL (≈ 1.07 µM) against C. glabrata 522; 0.5 µg/mL (≈ 1.07 µM) against C. tropicalis 2808E; 0.25 µg/mL (≈ 0.533 µM) against C. albicans CL-236; 0.25 µg/mL (≈ 0.533 µM) with C. albicans 4711E; 0.12 µg/mL (≈ 0.256 µM) in assay [1]. Besides, the MIC in the assay with C. parapsilosis 2372E was greater than 125 µg/mL.

With `C=C(Cl)CN1CC(C)OC(OCC23CC4C(C)CCC4C4(C=O)CC2C=C(C(C)C)C43C(=O)O)C1` (stereo not drawn) [Example 8, [1R-(1α,3aβ,4β,4aβ,7β,7aα,8aβ)]8a-[(2R6R)-(4-(2-chloroallyl)-6-methyl-morpholin-2-yl)-oxymethyl]-4-formyl-4,4a,5,6,7,7a,8,8a-octahydro-7-methyl-3-(1-methylethyl)-1,4-methano-s-indacene-3a(1H)-carboxylic acid], the MIC against C. glabrata 2375E is 0.03 µg/mL (≈ 0.0593 µM); in the assay on C. glabrata 522, 0.03 µg/mL (≈ 0.0593 µM); in the assay with C. tropicalis 2808E it was “≦0.001 μg/ml”; against C. albicans CL-236, “≦0.001 μg/ml”; in the assay with C. albicans 4711E, “≦0.001 μg/ml”; in assay [1], “≦0.001 μg/ml”. Moreover, the MIC against C. parapsilosis 2372E stood at 1 µg/mL (≈ 1.98 µM).

Regarding `C=C(C)CN1C[C@H](OC[C@@]23C[C@@H]4[C@H](C)CC[C@H]4[C@@]4(C=O)C[C@@H]2C=C(C(C)C)[C@@]34C(=O)O)O[C@H](C)C1` [Example 12], the MIC in the assay with C. glabrata 2375E is 0.25 µg/mL (≈ 0.515 µM); with C. glabrata 522 it was 0.25 µg/mL (≈ 0.515 µM); with C. tropicalis 2808E, 0.008 µg/mL (≈ 0.0165 µM); with C. albicans CL-236, “≦0.001 μg/ml”; against C. albicans 4711E, “≦0.001 μg/ml”; in assay [1], “≦0.001 μg/ml”. Further, the MIC in the assay on C. parapsilosis 2372E turned out to be 1 µg/mL (≈ 2.06 µM).

For `CC1CN(CC=C(F)F)CC(OCC23CC4C(C)CCC4C4(C=O)CC2C=C(C(C)C)C43C(=O)O)O1` [Example 10, [1R-(1α,3aβ,4β,4aβ,7β,7aα,8aβ)]8a-[(2R,6R)-(4-(3,3-difluoroallyl)-6-methyl-morpholin-2-yl)-oxymethyl]-4-formyl-4,4a,5,6,7,7a,8,8a-octahydro-7-methyl-3-(1-methylethyl)-1,4-methano-s-indacene-3a(1H)-carboxylic acid], the MIC was 1 µg/mL (≈ 1.97 µM) in the assay with C. glabrata 2375E; 1 µg/mL (≈ 1.97 µM) with C. glabrata 522; 0.06 µg/mL (≈ 0.118 µM) against C. tropicalis 2808E; 0.06 µg/mL (≈ 0.118 µM) in the assay on C. albicans CL-236; 0.03 µg/mL (≈ 0.0591 µM) with C. albicans 4711E; 0.03 µg/mL (≈ 0.0591 µM) in assay [1]. Also, the MIC against C. parapsilosis 2372E stood at 16 µg/mL (≈ 31.5 µM).

Take `C#CCN1CC(C)OC(OCC23CC4C(C)CCC4C4(C=O)CC2C=C(C(C)C)C43C(=O)O)C1` [Example 6, [1R-(1α,3aβ,4β,4aβ,7β,7aα,8aβ)]8a-[(2R,6R)-(4-(2-propynyl)-6-methyl-morpholin-2-yl)-oxymethyl]-4-formyl-4,4a,5,6,7,7a,8,8a-octahydro-7-methyl-3-(1-methylethyl)-1,4-methano-s-indacene-3a(1H)-carboxylic acid]: the MIC in the assay on C. glabrata 2375E was determined as 0.25 µg/mL (≈ 0.532 µM); in the assay on C. glabrata 522 it was 0.5 µg/mL (≈ 1.06 µM); in the assay on C. tropicalis 2808E it was 0.06 µg/mL (≈ 0.128 µM); in the assay on C. albicans CL-236, 0.015 µg/mL (≈ 0.0319 µM); with C. albicans 4711E it was 0.008 µg/mL (≈ 0.017 µM); in assay [1] it was 0.015 µg/mL (≈ 0.0319 µM). The minimal inhibitory concentration (MIC) with C. parapsilosis 2372E stood at 16 µg/mL (≈ 34.1 µM).

`CC1CN(Cc2ccccc2)CC(OCC23CC4C(C)CCC4C4(C=O)CC2C=C(C(C)C)C43C(=O)O)O1` [Example 1i, [1R-(1α,3aβ,4β,4aβ,7β,7aα,8aβ)]8a-[(2R,6R)-(4-benzyl-6-methylmorpholin-2-yl)-oxymethyl]-4-formyl-4,4a,5,6,7,7a,8,8a-octahydro-7-methyl-3-(1-methylethyl)-1,4-methano-s-indacene-3a(1H)-carboxylic acid]: the MIC against C. glabrata 2375E was 1 µg/mL (≈ 1.92 µM); in the assay on C. glabrata 522 it was 1 µg/mL (≈ 1.92 µM); against C. tropicalis 2808E it was 0.008 µg/mL (≈ 0.0153 µM); against C. albicans CL-236, “≦0.001 μg/ml”; in the assay with C. albicans 4711E, “≦0.001 μg/ml”; in the assay on C. parapsilosis 2372E, greater than 125 µg/mL.

Regarding `COc1ccc(CN2CC(C)OC(OCC34CC5C(C)CCC5C5(C=O)CC3C=C(C(C)C)C54C(=O)O)C2)cc1` [Example 16, [1R-(1α,3aβ,4β,4aβ,7β,7aα,8β)]8a-[(2R,6R)4-(4-methoxybenzyl)-6-methyl-morpholin-2-yl)-oxymethyl]-4-formyl-4,4a,5,6,7,7a,8,8a-octahydro-7-methyl-3-(1-methylethyl)-1,4-methano-s-indacene-3a(1H)-carboxylic acid], the MIC against C. glabrata 2375E was 0.25 µg/mL (≈ 0.453 µM); in the assay on C. glabrata 522, 0.25 µg/mL (≈ 0.453 µM); against C. tropicalis 2808E, 0.008 µg/mL (≈ 0.0145 µM); against C. albicans CL-236, “≦0.001 μg/ml”; against C. albicans 4711E, “≦0.001 μg/ml”; in assay [1], “≦0.001 μg/ml”. For the same compound, in the assay with C. parapsilosis 2372E, the MIC turned out to be 2 µg/mL (≈ 3.63 µM).
